The molecules below were run against Cannabinoid receptor 1 (Rattus norvegicus, UniProt P20272) (assay: Cannabinoid receptor 1 binding affinity by measuring its ability to displace [3H]WIN-55212-2 in rat forebrain membranes).
Assay type: cell membranes, Membrane

Chain of Cannabinoid receptor 1 (P20272 whole entry): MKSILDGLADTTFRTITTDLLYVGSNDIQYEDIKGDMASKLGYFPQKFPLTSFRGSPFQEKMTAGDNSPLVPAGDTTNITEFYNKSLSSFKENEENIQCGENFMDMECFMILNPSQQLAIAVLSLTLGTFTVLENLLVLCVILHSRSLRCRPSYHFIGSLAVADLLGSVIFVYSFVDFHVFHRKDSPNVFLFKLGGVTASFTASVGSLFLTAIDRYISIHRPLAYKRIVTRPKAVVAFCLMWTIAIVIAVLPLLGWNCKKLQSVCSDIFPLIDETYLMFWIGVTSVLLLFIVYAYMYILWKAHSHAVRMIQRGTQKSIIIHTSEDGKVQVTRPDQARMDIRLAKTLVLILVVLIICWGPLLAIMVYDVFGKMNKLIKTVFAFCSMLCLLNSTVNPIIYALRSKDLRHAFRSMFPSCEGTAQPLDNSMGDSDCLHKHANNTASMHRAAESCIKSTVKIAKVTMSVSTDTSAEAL

Question: Which Ki does the source give for `COc1ccc(C(=O)c2c(C)n(CCN3CCOCC3)c3cc(OC)ccc23)cc1` here?
Answer: 871 µM

Question: Which Ki does the source give for `O=C(c1c2ccccc2cc2ccccc12)c1cn(CCN2CCOCC2)c2ccccc12` here?
Answer: 427 µM

Question: Which Ki does the source give for `COc1ccc(C(=O)c2c(C)n(CCN3CCOCC3)c3cc(C)ccc23)cc1` here?
Answer: 676 µM

Question: Which Ki does the source give for `Cc1ccc(C(=O)c2c(C)n(CCN3CCOCC3)c3ccccc23)cc1` here?
Answer: 708 µM

Question: `COc1ccc(C(=O)c2c(C)n(CCN3CCOCC3)c3c(C)cccc23)cc1` was tested. Which Ki did it give?
Answer: 832 µM

Question: How did the Ki turn out when `Cc1c(C(=O)c2cccc(Cl)c2)c2ccccc2n1CCN1CCOCC1` was run?
Answer: 955 µM
